Patent US8618169B2, “Derivatives of N-phenylanthranilic acid and 2-benzimidazolone as potassium channel and/or neuron activity modulators” (Ramot at Tel-Aviv University Ltd., priority 2002, dated 2013)
Where “and” joins values, the source holds several entries; their conditions need not be identical. Equal entries are not always repeated.

Assays:
rat cortical neurons = assay: Evoked and spontaneous action potential activity of cultured rat cortical neurons, current-clamp; type: cell-based
KCNQ2/3 channels = target: T1, KCNQ2/3 channels (Homo sapiens, UniProt O43525+O43526); assay: KCNQ2/3 current in transfected CHO cells, whole-cell patch-clamp; type: cell-based
T1 construct: expressed in transfected cells; host or cells: CHO cells

M-current = target: T2, M-current (Rattus norvegicus, UniProt O88943+O88944); assay: Native M-current of cultured rat cortical neurons, voltage-clamp; type: cell-based; details: cortical neurons, from −50 mV to −70 mV
T2 construct: the native M-current from pyramidal-like neurons was recorded; endogenous in cells; host or cells: primary cortical neurons from Sprague Dawley rat embryos (E18)

COX (Cyclooxygenase) = assay: COX activity assay in C-26 cells (PGE2 radioimmunoassay); type: cell-based; details: for IC50: C-26 cells
Procedure: C-26 cells were plated on 24-well plates using RPMI medium. Different concentrations of the tested compound were added thereto and the cells were incubated for 30 minutes at 37° C. 30 μM exogenic arachidonic acid was then added and incubation was continued for 20 minutes (37° C.), so as to allow the cells to synthesize PGE2. Indomethacin was added thereafter (10 μM), to stop and completely block the activity. Then, the upper solution was removed into clean 24-wells. To the remained cells 100 μl NaOH (1M) were added to induce cytolysis, and the cells were left for later protein measurement. The solution removed to the new 24-well was used for a radioimmunoassay. The COX activity was estimated by calculating the ng PGE2/mg protein parameter.

KCNQ2/Q3 = KCNQ2/Q3 (Homo sapiens, UniProt O43525+O43526); assay: Opener potency on KCNQ2/Q3 by leftward shift of half-activation potential (ΔV50) versus concentration, Hill fit; type: cell-based; parameters: expressed in transfected cells
small DRG neurons = assay: Spiking activity of DRG neurons, current-clamp; type: cell-based, mouse; details: 15 μM; 75 pA, 400 ms
Procedure: Dorsal root ganglion (DRG) neurons were dissected from 2-4 days-old ICR mice that were decapitated. DRGs were placed in Hank's balanced saline solution (HBSS) and were prepared by enzymatic dissociation. Briefly, cells were incubated for 30 minutes in 5 mg/ml dispase (Sigma), 2 mg/ml collagenase type 1A (Sigma) and 0.1 mg/ml DNase (Invitrogen/Gibco) in calcium and magnesium-free HBSS, and the ganglia were thereafter mechanically triturated with a firepolished glass Pasteur pipette. The ganglia were then centrifuged for 5 minutes at 80×g and resuspended in DMEM supplemented with 2 mM L-glutamine, 16.5 mM NaCO3, 6 g/l glucose, 5 ml penicillin/streptomycin and 10% fetal calf serum. For electrophysiological recording, dissociated neurons were plated on 13 mm glass coverslips previously coated with poly-D-lysine (1 mg/ml) and laminin (10 μg/ml) and were used after 2-6 days in culture.
For current measurements in CHO cells, recordings were performed 40 hours following transfection, using the whole-cell configuration of the patch-clamp technique [Hamill et al., Nature 294: 462-464 (1981)]. Signals were amplified using an Axopatch 200B patch-clamp amplifier (Axon Instruments, Foster City, Calif., USA), sampled at 2 kHz and filtered at 800 Hz via a 4-pole Bessel low pass filter. Data were acquired using pClamp 8.1 software (Axon Instruments, Foster City, Calif., USA) and an Elonex Pentium III computer in conjunction with a DigiData 1322A interface (Axon Instruments, Foster City, Calif., USA). The patch pipettes were pulled from borosilicate glass (Warner Instrument. Corp., Hamden, Conn., USA) with a resistance of 2-5 MΩ and were filled with (in mM): 130 KCl, 1 MgCl2, 5 K2ATP, 5 EGTA, 10 HEPES, adjusted with KOH at pH 7.4 (290 mOsm). The external solution contained (in [mM]): 140 NaCl, 4 KCl, 1.8 CaCl2, 1.2 MgCl2, 11 glucose, 5.5 HEPES, adjusted with NaOH at pH 7.4 (310 mOsm). Series resistances (3-13 MΩ) were compensated (75-90%) and periodically monitored. […]

[1] = system: electroshock-induced seizures; assay: Maximal electroshock seizure (MES) test in ICR mice; type: in vivo
Procedure: All animals were treated in accordance with the Guide for the Care and Use of Laboratory Animals as adopted and promulgated by the U.S. National Institutes of Health. The procedures followed for experimentation and maintenance of the animals were approved by the animal research ethics committee of Tel Aviv University and in accordance with the Guide for the Care and Use of Laboratory Animals (1996. National Academy of Sciences, Washington D.C). […] electroshock were induced in adult mice by means of two transcorneal electrodes delivering an alternative current of 50 mA at 60 Hz for 0.2 sec using rodent shocker (Hugo Sachs Electronik, type 221). […] The tested compounds were dissolved in 0.9% saline were administered intraperitoneally either 30 minutes or 2 hours before the electroshock was performed. Animals failing to show tonic hind limb extension were scored as protected and were expressed in percentage.
Five groups of 10 ICR mice each received intraperitoneally saline (control) or meclofenamic acid (Compound 1) at 25 mg/kg, 50 mg/kg, 100 mg/kg and 150 mg/kg and were subjected 30 minutes later to an electric shock (50 mA, 0.2 second duration, 60 Hz).
In view of the strong depressing activity of Compound 6 on cortical neurons, the anticonvulsant activity in mice subjected to seizures produced by electroshock was examined, using the MES test described above. Compound 6 dissolved in saline was injected intraperitoneally (in a volume of 10 ml/kg) at doses ranging from 6 mg/kg to 20 mg/kg to ICR adult mice and its anticonvulsant activity was compared with saline. Twenty minutes after drug administration, seizures were produced by electroshock (50 mA, 0.2 second duration, 60 Hz).

[2] = system: hippocampal pyramidal neurons; assay: Spontaneous EPSCs of hippocampal pyramidal neuron cultures, voltage-clamp; type: cell-based; details: 10 μM
Procedure: To further determine the synaptic site of M-channel activation by Compound 6, its effects on spontaneous excitatory postsynaptic currents (EPSCs) that could be recorded from dense networks of hippocampal pyramidal neuron cultures was tested.
In FIGS. 30B and 30C, burst activity before (control), in the presence (Compound 6) and after (Wash) application of 5 μM (FIG. 30B) and 10 μM (FIG. 30C) Compound 6, as recorded at the voltage clamp mode is shown. In FIG. 30D, burst activity before (control) and in the presence of 25 μM Linopirdine is shown. In FIG. 30E, the normalized number of bursts appeared in 180 seconds time period for 5 μM (left panel), 10 μM (mid panel) of Compound 6 and 25 μM linopirdine (right panel) are shown. The holding potential was −70 mV. n=5-6.
Thus, using the voltage-clamp configuration of the patch-clamp technique, spontaneous EPSCs were isolated at −70 mV (holding potential) in the presence of 10 μM bicuculline and 10 μM picrotoxin to block GABAA receptor-mediated inhibitory postsynaptic currents. As is shown in FIG. 30A, under control conditions, the frequency of EPSCs is variable depending of the density of the hippocampal culture, ranging from 0.4 Hz to 2 Hz. […] However, the majority of the EPSCs measured at −70 mV under the experimental recording conditions are mediated by AMPA receptors as most of the currents are blocked by 10 μM NBQX, leaving only a small fraction EPSC sensitive to the NMDA receptor blocker DL-AP5 (FIG. 30A).

CN(CCO)C(=O)Cc1ccccc1Nc1c(Cl)cccc1Cl [Compound 9]
effect on evoked and spontaneous spiking activity of cortical neurons (rat cortical neurons; 20 μM): inhibitory activity
opener action on recombinant KCNQ2/3 channels (in words) (KCNQ2/3 channels; CHO cells): only a weak opener action

O=C(NCCOCCO)c1ccccc1Nc1cccc(C(F)(F)F)c1 [Compound 4]
effect on evoked and spontaneous cortical neuron activity (rat cortical neurons): depress
effect on spontaneous spiking activity (rat cortical neurons; 20 μM): markedly depressed
negative shift in the threshold of M-current activation (M-current): approximately 20 mV
IC50 (COX (Cyclooxygenase)): > 30000 nM
increase of the current amplitude (KCNQ2/3 channels; 50 μM, stepped from −85 mV to −40 mV): > 1.5 fold
increase of the current amplitude (KCNQ2/3 channels; 50 μM, stepped from −85 mV to −50 mV): more than 4 fold
opener action on recombinant KCNQ2/3 channels (in words) (KCNQ2/3 channels; CHO cells): potent KCNQ2/3 channel opener

CCOC(=O)Nc1ccc(NCc2ccc(F)cc2)cc1N [retigabine, N-(2-amino-4-(4-fluorobenzylamino)-phenyl)carbamic acid ethyl ester]
EC50 (KCNQ2/Q3): 2000 ± 1300 nM
Hill coefficient ηH (KCNQ2/Q3; Hill fit, compound alone): 1.20±0.30
maximum ΔV50 (KCNQ2/Q3; increasing concentrations co-exposed with 25 μM meclofenamic acid): −32±4 mV
effect on trains of evoked spikes (small DRG neurons): Very similar results

COCCOCCOC(=O)Cc1ccccc1Nc1c(Cl)cccc1Cl [Compound 8]
effect on evoked and spontaneous cortical neuron activity (rat cortical neurons): depress
effect on evoked and spontaneous spiking activity of cortical neurons (rat cortical neurons; low concentrations (10 μM evoked, 5 μM spontaneous)): potent inhibitory activity
opener action on recombinant KCNQ2/3 channels (in words) (KCNQ2/3 channels; CHO cells): only a weak opener action

O=C(O)Cc1ccccc1Nc1c(Cl)cccc1Cl [Compound 2, diclofenac]
effect on evoked action potentials (rat cortical neurons; 25 μM): no spike could be evoked
effect on spontaneous spiking activity (rat cortical neurons; 25 μM): quickly and reversibly depressed
% Protection ([1]; 25 mg/kg i.p., 30 minutes before electroshock): 10 (10) %
% Protection ([1]; 50 mg/kg i.p., 30 minutes before electroshock, listed as Diclofenac): 64 (11) %
% Protection ([1]; 50 mg/kg i.p., 30 minutes before electroshock, listed as diclofenac): 64%
% Protection ([1]; 50 mg/kg i.p., 2 hours before electroshock): 50 (4) %
% Protection ([1]; 100 mg/kg i.p., 30 minutes before electroshock): 92 (12) %
% Protection ([1]; 100 mg/kg i.p., 2 hours before electroshock): 83 (6) %
% Protection ([1]; 200 mg/kg i.p., 30 minutes before electroshock): 100 (15) %
% Protection ([1]; 200 mg/kg i.p., 2 hours before electroshock): 100 (6) %
ED50 ([1]; Mus musculus, intraperitoneal, 30 minutes or 2 hours before electroshock, 25-200 mg/kg, read-out: ED50 for suppression of tonic extension induced by MES): 43 mg/kg

CCCC(CCC)C(=O)[O-].[Na+] [sodium valproate]
protection from hind limb extension ([1]; 500 mg/kg intraperitoneal, 30 minutes before electroshock): fully prevented hind limb extension

Cc1cccc(Nc2ccccc2C(=O)NCCOCCO)c1C [Compound 5]
effect on evoked and spontaneous cortical neuron activity (rat cortical neurons): depress
effect on evoked action potentials (rat cortical neurons; 25 μM): reversibly inhibited
negative shift in the threshold of M-current activation (M-current): approximately 20 mV
COX inhibition activity (in words) (COX (Cyclooxygenase)): do not exhibit COX inhibition activity
IC50 (COX (Cyclooxygenase)): 10300 nM
effect on current amplitude (KCNQ2/3 channels; 15 μM, at −40 and −50 mV): enhances the current amplitude
leftward shift in the voltage-dependence of KCNQ2/3 activation (KCNQ2/3 channels; 25 μM, CHO cells): ~8 mV
V50 of KCNQ2/3 activation with compound (KCNQ2/3 channels; 25 μM, CHO cells, control −30.9±4.1 mV): −38.3±1.9 mV
effect on deactivation kinetics of KCNQ2/3 channels (KCNQ2/3 channels; CHO cells): slowed down

O=C(Cc1ccccc1Nc1c(Cl)cccc1Cl)OCCOCCO [Compound 7]
effect on evoked and spontaneous cortical neuron activity (rat cortical neurons): depress
effect on evoked and spontaneous spiking activity of cortical neurons (rat cortical neurons; 20 μM): very potent inhibitory activity
negative shift in the threshold of M-current activation (M-current): approximately 20 mV
IC50 (COX (Cyclooxygenase)): 11 nM and 11.7 nM
opener action on recombinant KCNQ2/3 channels (in words) (KCNQ2/3 channels; CHO cells): potent KCNQ2/3 channel opener

CCn1c(=O)[nH]c2ccccc21 [Compound 10, 1-ethyl benzimidazolone]
increase of the current amplitude (KCNQ2/3 channels; 100 μM, train protocol, cells stepped to −30 mV): up to 57%

Cc1c(Cl)cccc1Nc1ccccc1C(=O)NCCOCCO [Compound 3]
IC50 (COX (Cyclooxygenase)): 113 nM and 114 nM
increase of the current amplitude (KCNQ2/3 channels; 25 μM, train protocol, stepped to −50 mV): up to 299±47%
opener action on recombinant KCNQ2/3 channels (in words) (KCNQ2/3 channels; CHO cells): potent KCNQ2/3 potassium channel opening properties

O=C1N(c2ccccc2)c2ccccc2C1(Cc1ccncc1)Cc1ccncc1 [linopirdine]
effect on spontaneous spiking activity (rat cortical neurons; 10 μM): significantly enhanced the frequency of spontaneous spiking
frequency of EPSCs [2]: up to 278±41 % of control

O=C1NC(=O)C(c2ccccc2)(c2ccccc2)N1 [phenyloin]
protection from hind limb extension ([1]; 20 mg/kg intraperitoneal, 30 minutes before electroshock): fully prevented hind limb extension
